Assay [1] has as its target G4-RNA EBNA1. In words: HT-G4-FID assay: Thiazole Orange displacement from G4-RNA. It counts as binding, Epstein-Barr virus. The following applies: for DC50: K+-100 buffer, pH 7.3, triplicate assays; for affinity for the G-quadruplex structure of EBNA1 (in words, FID data): conclusion from Table 1. As for the experimental part: This assay is based on the displacement of a fluorescent indicator (Thiazole Orange, hereinafter TO) from a G4-RNA structure (RNA G-quadruplex of EBNA1) by a putative ligand such as the compounds of the invention (see FIG. 1). This displacement is quantified as % TO displacement. The percentage of TO displacement is calculated from the fluorescence intensity (F) in the presence of a putative ligand, using:
[formula] where F0 is fluorescence intensity of the probe (TO) bound to RNA without added ligand. The percentage of displacement is then plotted as a function of the concentration of added ligand. The RNA affinity of putative ligands is evaluated using the concentration of a ligand required to decrease the fluorescence of the probe by 50% (noted DC50), which is determined graphically from non-linear fitting of the displacement curve. […] 2. Materials and Reagents
Thiazole Orange (TO) and cacodylic acid were purchased from Aldrich and used without further purification. The oligoribonucleotide EBNA1 [5′-r(GGGGCAGGAGCAGGAGGA)-3′] (SEQ ID no 1) purified by reversed-phase HPLC was purchased from Eurogentec.
Stock solutions of the ligands (2 mM in DMSO (dimethylsulfoxyde)) were used for G4-FID assay, unless otherwise stated, and were stored at −20° C. Stock solutions of TO (2 mM in DMSO) were used for G4-FID assay. Fluorescent probe powders and solutions were stored and used, protected from light and used as aliquots to avoid freeze-thaw cycles. HT-G4-FID measurements were performed on a FLUOstar Omega microplate reader (BMG Labtech) with 96-well Non-Binding Surface black with black bottom polystyrene microplates (Corning ref 3650).
For HT-G4-FID assay, the oligonucleotide was dissolved in K^+−100-buffer (10 mM lithium cacodylate, pH 7.3, 100 mM KCl, 1 mM EDTA, 1% DMSO). Oligonucleotide concentrations were determined on the basis of their absorbance at 260 nm. Prior to use, the oligonucleotide was pre-treated by heating at 95° C. for 5 min followed by a slow cooling to 25° C.
Each G4-FID assay is performed in a 96-well microplates. […] The microplate is filled with (a) K^+−100 solution (qs for 200 μL) (b) 10 μL of a solution of pre-folded oligonucleotides (5 μM) and TO (10 μM-2 eq) and (c) an extemporaneously prepared 5 μM ligand solution in K^+−100 buffer (0 to 100 μL along the line of the microplate, i.e., from column […]: 0, 0.125, 0.25, 0.375, 0.5, 0.625, 0.75, 1.0, 1.25, 1.5, 2.0 and 2.5 μM) (see Largy et al., Anal Bioanal Chem 2011, 400, 34193427). After 5 min of orbital shaking at 500 rpm, fluorescence intensity is measured using the following experimental parameters: positioning delay: 0.5 s, 20 flashes per well, emission/excitation filters (nm): 485/520, gain adjusted at 80% of the fluorescence from the most fluorescent well (i.e., a well from column A).
Results are shown in Table 1 below (lower DC50 values indicate higher affinity of compounds to the G4-RNA structure of EBNA1).

For assay [2], the system named is quadruplex RNA F-EBNA1-T. As to the kind of experiment: FRET-melting assay. It counts as binding, Epstein-Barr virus. The following applies: for ΔTm, ligand + 3 μM ds26 / ΔTm, ligand + 10 μM ds26 / ΔTm, ligand alone: F-EBNA1-T 0.2 μM, ligand 1.0 μM, K+10 buffer; for ΔTm, ligand + 3 μM ds26: competitor DNA ds26 3 μM (15 eq); for ΔTm, ligand + 10 μM ds26: competitor DNA ds26 10 μM (50 eq); for ΔTm, ligand alone: no competitor; for affinity for the G-quadruplex structure of EBNA1 (in words, FRET-melting data): conclusion from Table 2. From the text: The FRET-melting assay is based on thermal denaturation of G4-ARN monitored by fluorescence due to the phenomenon of Förster Resonance Energy Transfer (FRET). This method uses quadruplex-forming RNA sequence dual-labeled with two different fluorophores: a donor (fluorescein, or FAM) and an acceptor (tetramethylrhodamine, or TAMRA). When RNA is folded into G-quadruplex (G4) structure, fluorescence of the donor fluorophore is weak due to strong energy transfer (FRET) to the neighboring acceptor fluorophore. Upon thermal denaturation, the quadruplex unfolds and the fluorophores are separated, leading to decrease of the FRET effect and increase of the fluorescence of the donor (see FIG. 2). By following the fluorescence of the donor as a function of temperature, a melting curve of the G-quadruplex RNA can be obtained, which allows determining the temperature of denaturation at which 50% of the quadruples is unfolded (T1, FIG. 3).
The FRET-melting assay allows assessing the affinity of small molecules (ligands) for the G4-RNA. The addition of a G4-ligand stabilizes the G-quadruplex structure and increases the denaturation temperature. The temperature of denaturation in the presence of ligands (T2) can be compared with that obtained in the absence of ligands (T1). The value of ΔTm (ΔTm=T2−T1) represents a measure of the affinity of the compounds of the invention (ligand). Generally, values of ΔTm>20° C. correspond to ligands of high affinity.
The dual-labeled oligoribonucleotide EBNA1 [5′-FAM-r(GGGGCAGGAGCAGGAGGA)-TAMRA-3′] (SEQ ID no 2) purified by reversed-phase HPLC was purchased from Eurogentec. The donor fluorophore was 6-carboxyfluorescein (FAM) and the acceptor fluorophore was 6-carboxytetramethylrhodamine (TAMRA).
Stock solutions of the ligands (2 mM in DMSO) were used for FRET-melting assay, unless otherwise stated, and were stored at −20° C. FRET-melting measurements are performed on 7900HT Fast Real-Time PCR System (Applied Biosystems) with Microamp Fast optical 96-well reaction plate (Applied Biosystems).
Preparation of Oligonucleotides For FRET-melting assay, oligoribonucleotide F-EBNA1-T was dissolved in K^+10 buffer (10 mM lithium cacodylate buffer, pH 7.3, supplemented with 10 mM KCl and 90 mM LiCl).
Prior to use, all oligonucleotides were pre-treated by heating at 95° C. for 5 min, then rapidly cooled to 4° C. to favor the intramolecular folding by kinetic trapping. Duplex-DNA ds26 (5′CAA-TCG-GAT-CGA-ATT-CGA-TCC-GAT-TG-3′) (SEQ ID no 3) was prepared by heating this self-complementary strand at 90° C. for 5 min in K^+10 buffer followed by a slow cooling over 6 h.
FRET-melting assay is performed in 96-well plates on real time PCR apparatus 7900HT Fast Real-Time PCR System using the heating ramp as follow: 5 min at 25° C., then increase of 0.5° C. every minute until 95° C. Each experimental condition was tested in duplicated in a volume of 25 μL for each sample. The 96-well plates (Applied Biosystems) were prepared by aliquoting the annealed RNA (24 μL of 0.21 μM solution in K^+10 buffer) into each well, followed by 1 μL of ligand solution (25 μM in K^+10 buffer). For competition experiments, duplex competitors were added to 200 nM quadruplex sequences at final concentrations of 3.0 μM (15 eq) and 10.0 μM (50 eq), with a total reaction volume of 25 μL, with the labeled oligoribonucleotide (0.2 μM) and the ligand (1.0 μM). Measurements were made with excitation at 492 nm and detection at 516 nm. The change in the melting temperature in the presence of 1.0 μM putative ligand, ΔTm (1.0 μM), was calculated from at least two experiments by subtraction of the blank from the averaged melting temperature of each compound (1.0 μM).
The results are shown in FIG. 4 and in Table 2 below (higher ΔTm values indicate higher affinity of the compounds to G4-RNA structure of EBNA1).

For the compound `CC[n+]1cccc2cc(C=NNC(=O)c3cccc(C(=O)NN=Cc4ccc5c(ccc[n+]5CC)c4)n3)ccc21.[I-].[I-]` [Compound 3b, N′^2,N′^6-Bis[(1-ethylquinolinium-6-yl)methylene]pyridine-2,6-dicarbohydrazide iodide], the DC50 in assay [1] was determined as 740 ± 30 nM. For the same compound, in assay [2], the “ΔTm, ligand + 3 μM ds26” value amounted to 7.6 ± 0.5 °C; the “ΔTm, ligand + 10 μM ds26” value was determined as 7.4 ± 0.3 °C; the “ΔTm, ligand alone” value amounted to 5.9 ± 0.1 °C.
As for `CC[n+]1cccc2cc(C=NNC(=O)c3ccc4ccc(C(=O)NN=Cc5ccc6c(ccc[n+]6CC)c5)nc4n3)ccc21.[I-].[I-]` [Compound 9b, N′^2,N′^7-Bis[(1-ethylquinolinium-6-yl)methylene]-1,8-naphthyridine-2,7-dicarbohydrazide iodide], the DC50 in assay [1] was determined as 800 ± 10 nM. Besides, in assay [2], the “ΔTm, ligand + 3 μM ds26” value was determined as 10.3 ± 0.2 °C; the “ΔTm, ligand + 10 μM ds26” value worked out at 8.8 ± 0.2 °C; the “ΔTm, ligand alone” value was found to be 11.8 ± 0.1 °C.
In turn, `O=C(NN=Cc1ccc2c(ccc[n+]2Cc2ccccc2)c1)c1ccc2ccc(C(=O)NN=Cc3ccc4c(ccc[n+]4Cc4ccccc4)c3)nc2n1.[Br-].[Br-]` [Compound 9c, N′^2,N′^7-Bis[(1-benzylquinolinium-6-yl)methylene]-1,8-naphthyridine-2,7-dicarbohydrazide bromide] gave a DC50 in assay [1] of 1090 ± 100 nM. In assay [2], the “ΔTm, ligand + 3 μM ds26” value was found to be 12.3 ± 0.4 °C; the “ΔTm, ligand + 10 μM ds26” value amounted to 10.0 ± 1.7 °C; the “ΔTm, ligand alone” value came to 13.1 ± 0.6 °C.
In the case of `O=C(NN=Cc1cc[n+](Cc2ccccc2)c2ccccc12)c1ccc2ccc3ccc(C(=O)NN=Cc4cc[n+](Cc5ccccc5)c5ccccc45)nc3c2n1.[Br-].[Br-]` [Compound 11c, N′^2,N′^9-Bis[(1-benzylquinolinium-4-yl)methylene]-1,10-phenanthroline-2,9-dicarbohydrazide bromide], in assay [1], the DC50 was 340 ± 20 nM and the “affinity for the G-quadruplex structure of EBNA1 (in words, FID data)” value is “particularly high affinity”. Also, in assay [2], the “ΔTm, ligand + 3 μM ds26” value was 20.3 ± 0.4 °C; the “ΔTm, ligand + 10 μM ds26” value is 17.0 ± 0.8 °C; the “ΔTm, ligand alone” value is 20.1 ± 0.3 °C; the “affinity for the G-quadruplex structure of EBNA1 (in words, FRET-melting data)” value (shortened to “affinity … (in words, FRET-melting data)”) is reported as “particularly high affinity”.
`O=C(NN=Cc1ccc2c(ccc[n+]2Cc2ccccc2)c1)c1ccc2ccc3ccc(C(=O)NN=Cc4ccc5c(ccc[n+]5Cc5ccccc5)c4)nc3c2n1.[Br-].[Br-]` [Compound 12c, N′^2,N′^9-Bis[(1-benzylquinolinium-6-yl)methylene]-1,10-phenanthroline-2,9-dicarbohydrazide bromide] returned a DC50 in assay [1] of 650 ± 60 nM. Also, in assay [2], the “ΔTm, ligand + 3 μM ds26” value was determined as 25.0 ± 0.7 °C; the “ΔTm, ligand + 10 μM ds26” value was 22.7 ± 1.5 °C; the “ΔTm, ligand alone” value came to 25.3 ± 1.3 °C; the “affinity … (in words, FRET-melting data)” value is “particularly high affinity”.
Take `O=C(NN=Cc1cc[n+](Cc2ccccc2)c2ccccc12)c1cccc(C(=O)NN=Cc2cc[n+](Cc3ccccc3)c3ccccc23)n1.[Br-].[Br-]` [Compound 2c, N′^2,N′^6-Bis[(1-benzylquinolinium-4-yl)methylene]pyridine-2,6-dicarbohydrazide bromide]: in assay [1], the DC50 turned out to be 390 ± 20 nM and the “affinity for the G-quadruplex structure of EBNA1 (in words, FID data)” value is “particularly high affinity”. In assay [2], the “ΔTm, ligand + 3 μM ds26” value came to 11.4 ± 0.6 °C; the “ΔTm, ligand + 10 μM ds26” value was 9.6 ± 0.2 °C; the “ΔTm, ligand alone” value was determined as 10.1 ± 0.9 °C.
In turn, `O=C(NN=Cc1ccc2c(ccc[n+]2Cc2ccccc2)c1)c1cccc(C(=O)NN=Cc2ccc3c(ccc[n+]3Cc3ccccc3)c2)n1.[Br-].[Br-]` [Compound 3c, N′^2,N′^6-Bis[(1-benzylquinolinium-6-yl)methylene]pyridine-2,6-dicarbohydrazide bromide] displayed a DC50 in assay [1] of 720 ± 30 nM. Further, in assay [2], the “ΔTm, ligand + 3 μM ds26” value amounted to 12.2 ± 0.2 °C; the “ΔTm, ligand + 10 μM ds26” value was determined as 12.0 ± 0.2 °C; the “ΔTm, ligand alone” value was 10.4 ± 0.3 °C.
Turning to `CC[n+]1cccc2cc(C=NNC(=O)c3ccc4ccc5ccc(C(=O)NN=Cc6ccc7c(ccc[n+]7CC)c6)nc5c4n3)ccc21.[I-].[I-]` [Compound 12b, N′^2,N′^9-Bis[(1-ethylquinolinium-6-yl)methylene]-1,10-phenanthroline-2,9-dicarbohydrazide iodide], the DC50 in assay [1] is 590 ± 30 nM. For the same compound, in assay [2], the “ΔTm, ligand + 3 μM ds26” value was determined as 25.9 ± 0.4 °C; the “ΔTm, ligand + 10 μM ds26” value turned out to be 25.1 ± 0.8 °C; the “ΔTm, ligand alone” value turned out to be 28.5 ± 1.1 °C; the “affinity … (in words, FRET-melting data)” value is reported as “particularly high affinity”.

The values above are taken from patent publication US11406631B2, “Hydrazone derivatives for preventing or treating EBV-related cancers” (Universite de Bretagne Occidentale, priority 2018, dated 2022).
